Reference: US20140309107A1

Key:
Botrytis cinerea = Botrytis cinerea Test (Roses)/Preventive (field trial); conditions: young rose plants in the field, sprayed twice five days apart, leaves and stems evaluated fifteen days after second application; B9 (RHAPSODY) 2 mL/L, F196 (SCALA) 1.25 mL/L, combination 2 mL/L + 1.25 mL/L
Description: The application rate of Bacillus subtilis AQ713 refers to the amount of (1.34%) Bacillus subtilis AQ713 (NRRL Accession No. B-21661) (i.e., spore preparation) contained in a formulation of AQ713.
The rose plants were grown in the field under conditions where disease pressure from Botrytis cinerea was present. Each treatment was applied twice to the plants at intervals five days apart. The efficacy of the treatments in preventing Botrytis infection on the leaves and stems of the plants was evaluated fifteen days after the second application.

Alternaria solani = test: Alternaria Test (Tomatoes)/Preventive; type: in vivo; conditions: young tomato plants sprayed preventively, evaluated 3 days after inoculation; application rate B19 500 ppm, F206 100 ppm, B19 + F206 500 + 100 ppm (1:0.2); 0% = untreated control, 100% = no disease
Description: A solution comprising 8.5×10^8 CFU/g (1.34%) of this strain was used.

SMILES	Efficacy in % Found (activity observed) (Botrytis cinerea) [%]	Efficacy in % Found (activity observed) (Alternaria solani) [%]
Cc1cc(C)nc(Nc2ccccc2)n1 [F196 pyrimethanil, pyrimethanil]	40	–
C#CCOc1ccc(CCNC(=O)C(OCC#C)c2ccc(Cl)cc2)cc1OC (centres unmarked) [F206 mandipropamid, mandipropamid]	–	0
